Results from ChEMBL document CHEMBL3885861, “Open TG-GATES”.

Organism: Rattus norvegicus
Test: Open TG-GATES - Regimen: Single
Format: toxicity, organism-based, Sprague-Dawley
Parameters: regimen Single, gender Male, age 6 weeks
Conditions: in vivo, po, 0 mg/kg, route gavage, dose level Control; for APTT / Bas / Eos / Fbg / Hb / Ht / Lym / MCH / MCHC / MCV / Mono / Neu / PT / Plat / RBC / Ret / WBC: tissue Blood; for KIDNEY_L / KIDNEY_R / KIDNEY_TOTAL: tissue Kidney; for LIVER: tissue Liver; for A/G / ALP / ALT / AST / BUN / CRE / Ca / Cl / DBIL / GLC / IP / K / LDH / Na / PL / RALB / TBIL / TC / TG / TP / gamma-GTP: tissue Plasma

CC(=O)[C@@]1(O)CC[C@H]2[C@@H]3C=C(Cl)C4=CC(=O)CC[C@]4(C)[C@H]3CC[C@@]21C [CHLORMADINONE]
TERMINAL_BW (3 h): 219.1 g
APTT (3 h): 23.2 s
Bas (3 h): 0%
Eos (3 h): 0.6%
Fbg (3 h): 294.4 mg/dL
Hb (3 h): 13.3 g/dL
Ht (3 h): 41%
Lym (3 h): 83.4%
MCH (3 h): 20.4 pg
MCHC (3 h): 32.3%
MCV (3 h): 63.1 fL
Mono (3 h): 2.2%
Neu (3 h): 13.2%
PT (3 h): 15.5 s
Plat (3 h): 111.7 x10_4/uL
RBC (3 h): 650.2 x10_4/ul
Ret (3 h): 8%
WBC (3 h): 78.7 x10_2/uL
KIDNEY_L (3 h): 1 g
KIDNEY_R (3 h): 1 g
KIDNEY_TOTAL (3 h): 2 g
LIVER (3 h): 10 g
A/G (3 h): 1.2
ALP (3 h): 1607 IU/L
ALT (3 h): 42 IU/L
AST (3 h): 77.8 IU/L
BUN (3 h): 13.4 mg/dL
CRE (3 h): 0.2 mg/dL
Ca (3 h): 10.8 mg/dL
Cl (3 h): 105.2 meq/L
DBIL (3 h): 0 mg/dL
GLC (3 h): 180 mg/dL
IP (3 h): 8.1 mg/dL
K (3 h): 4.3 meq/L
LDH (3 h): 163.6 IU/L
Na (3 h): 142.2 meq/L
PL (3 h): 130.6 mg/dL
RALB (3 h): 3 g/dL
TBIL (3 h): 0.02 mg/dL
TC (3 h): 71.8 mg/dL
TG (3 h): 63.4 mg/dL
TP (3 h): 5.4 g/dL
gamma-GTP (3 h): 1.8 IU/L
TERMINAL_BW (6 h): 216.7 g
APTT (6 h): 23.8 s
Bas (6 h): 0%
Eos (6 h): 0.6%
Fbg (6 h): 293.2 mg/dL
Hb (6 h): 13.3 g/dL
Ht (6 h): 41.1%
Lym (6 h): 80.6%
MCH (6 h): 20.6 pg
MCHC (6 h): 32.3%
MCV (6 h): 63.8 fL
Mono (6 h): 2.8%
Neu (6 h): 15.4%
PT (6 h): 16.1 s
Plat (6 h): 112 x10_4/uL
RBC (6 h): 643.6 x10_4/ul
Ret (6 h): 7.8%
WBC (6 h): 116.8 x10_2/uL
KIDNEY_L (6 h): 0.9 g
KIDNEY_R (6 h): 1 g
KIDNEY_TOTAL (6 h): 2 g
LIVER (6 h): 9.2 g
A/G (6 h): 1.2
ALP (6 h): 1313.8 IU/L
ALT (6 h): 40.8 IU/L
AST (6 h): 74.6 IU/L
BUN (6 h): 12.8 mg/dL
CRE (6 h): 0.1 mg/dL
Ca (6 h): 10.5 mg/dL
Cl (6 h): 105.4 meq/L
DBIL (6 h): 0 mg/dL
GLC (6 h): 190.8 mg/dL
IP (6 h): 9.3 mg/dL
K (6 h): 4.4 meq/L
LDH (6 h): 174.8 IU/L
Na (6 h): 141.2 meq/L
PL (6 h): 132.6 mg/dL
RALB (6 h): 2.9 g/dL
TBIL (6 h): 0.022 mg/dL
TC (6 h): 73.2 mg/dL
TG (6 h): 48.6 mg/dL
TP (6 h): 5.3 g/dL
gamma-GTP (6 h): 1.2 IU/L
TERMINAL_BW (9 h): 217.4 g
APTT (9 h): 23.3 s
Bas (9 h): 0%
Eos (9 h): 0.8%
Fbg (9 h): 309.2 mg/dL
Hb (9 h): 12.9 g/dL
Ht (9 h): 39.8%
Lym (9 h): 80%
MCH (9 h): 20.5 pg
MCHC (9 h): 32.3%
MCV (9 h): 63.4 fL
Mono (9 h): 2.6%
Neu (9 h): 15.8%
PT (9 h): 15.6 s
Plat (9 h): 123.4 x10_4/uL
RBC (9 h): 628 x10_4/ul
Ret (9 h): 8.2%
WBC (9 h): 100.7 x10_2/uL
KIDNEY_L (9 h): 1 g
KIDNEY_R (9 h): 1 g
KIDNEY_TOTAL (9 h): 2 g
LIVER (9 h): 9.4 g
A/G (9 h): 1.3
ALP (9 h): 1276.4 IU/L
ALT (9 h): 36.8 IU/L
AST (9 h): 70.2 IU/L
BUN (9 h): 13.6 mg/dL
CRE (9 h): 0.2 mg/dL
Ca (9 h): 10.5 mg/dL
Cl (9 h): 104.8 meq/L
DBIL (9 h): 0 mg/dL
GLC (9 h): 202.6 mg/dL
IP (9 h): 9.6 mg/dL
K (9 h): 4.1 meq/L
LDH (9 h): 170 IU/L
Na (9 h): 141.2 meq/L
PL (9 h): 128.4 mg/dL
RALB (9 h): 3 g/dL
TBIL (9 h): 0.02 mg/dL
TC (9 h): 70.4 mg/dL
TG (9 h): 69.8 mg/dL
TP (9 h): 5.3 g/dL
gamma-GTP (9 h): 1.6 IU/L
TERMINAL_BW (24 h): 233 g
APTT (24 h): 23.5 s
Bas (24 h): 0%
Eos (24 h): 0.8%
Fbg (24 h): 308.8 mg/dL
Hb (24 h): 13.3 g/dL
Ht (24 h): 40.9%
Lym (24 h): 82.8%
MCH (24 h): 20.5 pg
MCHC (24 h): 32.5%
MCV (24 h): 63.1 fL
Mono (24 h): 2.2%
Neu (24 h): 13.4%
PT (24 h): 15.9 s
Plat (24 h): 115.3 x10_4/uL
RBC (24 h): 649.2 x10_4/ul
Ret (24 h): 7.8%
WBC (24 h): 120.1 x10_2/uL
KIDNEY_L (24 h): 1 g
KIDNEY_R (24 h): 1 g
KIDNEY_TOTAL (24 h): 2 g
LIVER (24 h): 11 g
A/G (24 h): 1.2
ALP (24 h): 1565 IU/L
ALT (24 h): 45.4 IU/L
AST (24 h): 73.6 IU/L
BUN (24 h): 17.8 mg/dL
CRE (24 h): 0.2 mg/dL
Ca (24 h): 10.9 mg/dL
Cl (24 h): 105.4 meq/L
DBIL (24 h): 0 mg/dL
GLC (24 h): 197.8 mg/dL
IP (24 h): 7.3 mg/dL
K (24 h): 4.7 meq/L
LDH (24 h): 219 IU/L
Na (24 h): 140.6 meq/L
PL (24 h): 166 mg/dL
RALB (24 h): 3 g/dL
TBIL (24 h): 0.01 mg/dL
TC (24 h): 85 mg/dL
TG (24 h): 115 mg/dL
TP (24 h): 5.5 g/dL
gamma-GTP (24 h): 1 IU/L
